# Results from PMC9767416, “Discovery of small molecule mechanistic target of rapamycin inhibitors as anti-aging and anti-cancer therapeutics” (Frontiers in Aging Neuroscience, 2022).
# System: docetaxel (DTX)-induced senescent BJ cells
# Experiment: Crystal violet and resazurin assays in docetaxel-induced senescent BJ
# Format: cell-based, human
# Protocol: To obtain ionizing radiation (IR)-induced senescent cells, proliferating RPE-1 cells were exposed to a single dose of X-rays (20 Gy) using Pantak HF160 (Gulmay, Surrey, UK) X-ray instrument equipped with Pantak Seifert HF320 generator, MXR-161 X-ray tube (Comet AG, Flamatt, Switzerland), and an aluminum filter using current 1–10 mA. After irradiation, the cells were cultured for an additional 7 days until the development of the senescent phenotype ([Salovska et al., 2022]). To induce docetaxel-induced senescence (DIS), BJ cells were exposed to 5 nM docetaxel for 7 days, as described previously ([Sapega et al., 2018]). […]
# For the crystal violet assay, the cells were washed twice with 150 μL PBS and stained with 30 μL 0.5% (w/v) crystal violet in 20% methanol for 15 mins. […] The absorbance was read at 595 nm using a microplate reader (Envision, PerkinElmer, Waltham, MA, USA). The absorbance of crystal violet in treated cells was expressed as a percentage of absorbance in untreated cells. Each condition was measured at least in triplicate.
# For the resazurin assay, 200 μL of the culture medium of each well was exchanged for 100 μL of resazurin (stock solution 30 mg/mL; Sigma, St. Louis, MO, USA) diluted 10 times in the culture medium, and the cells were incubated at 37°C for 1–3 h. Reading of fluorescence was done using a microplate reader (PerkinElmer, Waltham, MA, USA). […]
smiles,measurement,setting,value
"Nc1ccc(C(=O)Nc2cccc(-c3c[nH]c4ncccc34)c2)cc1O [Compound 3, N-(3-(1H-pyrrolo[2,3-b]pyridin-3-yl)phenyl)-4-amino-3-hydroxybenzamide]",selectivity for senescent versus proliferating cells,"DIS-BJ vs proliferating BJ, crystal violet and resazurin",non-selective manner
same,sensitivity of senescent cells (crystal violet and resazurin),"DTX-induced senescent BJ, 0–100 μM, 24 h",significantly sensitive
